Measurements: patent publication US20130035326A1 (AMBIT BIOSCIENCES CORPORATION, priority 2009, published 2013)

Experiments:
FLT3 kinase = target: T1, FLT3 kinase (Homo sapiens, UniProt P36888); test: Competition binding assay, FLT3 Kd
T1 construct: made in house; host or cells: T7 phage display or HEK-293 cells
T1 sequence (P36888 27-993): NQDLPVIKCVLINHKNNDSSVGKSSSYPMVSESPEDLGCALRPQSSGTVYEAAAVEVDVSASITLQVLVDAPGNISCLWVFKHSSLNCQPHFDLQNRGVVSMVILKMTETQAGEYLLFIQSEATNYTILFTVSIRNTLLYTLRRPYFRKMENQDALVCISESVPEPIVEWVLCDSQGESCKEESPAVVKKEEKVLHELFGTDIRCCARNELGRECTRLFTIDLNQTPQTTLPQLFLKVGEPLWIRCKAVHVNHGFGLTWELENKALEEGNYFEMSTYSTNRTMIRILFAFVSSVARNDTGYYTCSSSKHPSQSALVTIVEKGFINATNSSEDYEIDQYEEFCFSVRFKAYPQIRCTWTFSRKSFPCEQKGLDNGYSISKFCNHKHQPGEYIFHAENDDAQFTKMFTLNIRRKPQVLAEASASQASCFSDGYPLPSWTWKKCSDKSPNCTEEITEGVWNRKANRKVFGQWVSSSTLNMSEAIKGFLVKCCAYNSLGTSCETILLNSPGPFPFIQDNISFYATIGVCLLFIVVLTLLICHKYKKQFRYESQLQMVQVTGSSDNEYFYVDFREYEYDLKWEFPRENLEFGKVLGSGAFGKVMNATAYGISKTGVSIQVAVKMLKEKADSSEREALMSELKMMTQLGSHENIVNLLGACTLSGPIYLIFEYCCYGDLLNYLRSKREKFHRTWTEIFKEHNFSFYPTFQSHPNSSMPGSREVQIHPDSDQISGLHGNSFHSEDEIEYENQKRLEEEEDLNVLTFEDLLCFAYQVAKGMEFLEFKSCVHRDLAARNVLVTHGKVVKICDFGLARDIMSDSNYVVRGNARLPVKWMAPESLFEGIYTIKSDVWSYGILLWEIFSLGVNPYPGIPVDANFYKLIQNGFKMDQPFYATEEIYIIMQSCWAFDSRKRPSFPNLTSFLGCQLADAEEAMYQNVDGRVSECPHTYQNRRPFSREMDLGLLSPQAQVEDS
Method in brief: (§1)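 Readout: qPCR of kinase eluted from ligand-coated beads. T7 phage-fused or HEK-293-expressed DNA-tagged kinase, 1 h RT equilibration with compound; Kd from 11-pt 3-fold series.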

KIT kinase = target: T2, KIT kinase (Homo sapiens, UniProt P10721); test: Competition binding assay, KIT Kd
T2 construct: made in house; host or cells: T7 phage display or HEK-293 cells
Method in brief: as §1

CSF-1R kinase = target: T3, CSF-1R kinase (Homo sapiens, UniProt P07333); test: Competition binding assay, CSF-1R Kd
T3 construct: made in house; host or cells: T7 phage display or HEK-293 cells
Method in brief: as §1

MV4-11 cells = test: MV4-11 cell proliferation assay (Alamar Blue); assay type: cell-based; conditions: Homo sapiens, MV4-11, 72 h, 3 days incubation
Method in brief: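 Flt3-ITD MV4-11 cells were serum-starved overnight in Iscove's with 0.5% FBS, then given compound at 9 half-log concentrations (0.5% DMSO) for 3 days at 37° C. Alamar Blue reduction was read after 3 h by fluorescence (560/590 nm). IC50 is the mean of duplicates versus negative control.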

[1] = target: kinase panel containing either 359 or 386 distinct kinases; test: Selectivity score S10 from competition binding against a panel of kinases; conditions: compounds at 10 μM; panel of 386 distinct kinases
Method in brief: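 Compounds were tested at 10 μM in competition binding against T7 phage-fused or HEK-293-expressed DNA-tagged kinases with immobilized affinity ligands, 1 h at room temperature. Bound kinase was quantified by qPCR as percent of DMSO control; S10 is the fraction of distinct kinases (mutants excluded) with POC below 10.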

T2 sequence (P10721 26-976): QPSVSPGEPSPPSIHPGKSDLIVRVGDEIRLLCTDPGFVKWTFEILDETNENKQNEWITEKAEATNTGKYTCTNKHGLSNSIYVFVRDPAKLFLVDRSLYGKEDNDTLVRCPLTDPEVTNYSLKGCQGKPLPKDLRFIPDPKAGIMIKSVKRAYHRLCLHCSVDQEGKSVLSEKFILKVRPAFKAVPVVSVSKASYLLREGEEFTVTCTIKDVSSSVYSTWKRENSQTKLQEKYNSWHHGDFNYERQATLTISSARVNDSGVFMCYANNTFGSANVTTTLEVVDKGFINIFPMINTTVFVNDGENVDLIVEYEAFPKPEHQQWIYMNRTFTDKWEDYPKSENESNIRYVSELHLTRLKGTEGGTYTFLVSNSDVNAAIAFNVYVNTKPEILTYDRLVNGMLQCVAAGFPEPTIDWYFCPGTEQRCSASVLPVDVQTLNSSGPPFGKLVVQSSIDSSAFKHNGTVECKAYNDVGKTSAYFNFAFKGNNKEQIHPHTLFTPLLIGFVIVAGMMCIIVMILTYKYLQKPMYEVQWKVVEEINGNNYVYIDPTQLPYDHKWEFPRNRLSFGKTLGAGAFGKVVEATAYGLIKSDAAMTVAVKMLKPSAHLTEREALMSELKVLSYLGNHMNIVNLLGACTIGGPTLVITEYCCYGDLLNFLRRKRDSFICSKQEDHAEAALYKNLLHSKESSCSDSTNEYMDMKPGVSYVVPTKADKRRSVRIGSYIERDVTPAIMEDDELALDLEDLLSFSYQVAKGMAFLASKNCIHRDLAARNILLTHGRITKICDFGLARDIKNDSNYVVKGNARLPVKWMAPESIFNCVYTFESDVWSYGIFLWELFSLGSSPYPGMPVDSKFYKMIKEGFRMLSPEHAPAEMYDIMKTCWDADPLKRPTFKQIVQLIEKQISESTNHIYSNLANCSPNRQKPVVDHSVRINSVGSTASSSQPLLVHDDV
T3 sequence (P07333 20-972): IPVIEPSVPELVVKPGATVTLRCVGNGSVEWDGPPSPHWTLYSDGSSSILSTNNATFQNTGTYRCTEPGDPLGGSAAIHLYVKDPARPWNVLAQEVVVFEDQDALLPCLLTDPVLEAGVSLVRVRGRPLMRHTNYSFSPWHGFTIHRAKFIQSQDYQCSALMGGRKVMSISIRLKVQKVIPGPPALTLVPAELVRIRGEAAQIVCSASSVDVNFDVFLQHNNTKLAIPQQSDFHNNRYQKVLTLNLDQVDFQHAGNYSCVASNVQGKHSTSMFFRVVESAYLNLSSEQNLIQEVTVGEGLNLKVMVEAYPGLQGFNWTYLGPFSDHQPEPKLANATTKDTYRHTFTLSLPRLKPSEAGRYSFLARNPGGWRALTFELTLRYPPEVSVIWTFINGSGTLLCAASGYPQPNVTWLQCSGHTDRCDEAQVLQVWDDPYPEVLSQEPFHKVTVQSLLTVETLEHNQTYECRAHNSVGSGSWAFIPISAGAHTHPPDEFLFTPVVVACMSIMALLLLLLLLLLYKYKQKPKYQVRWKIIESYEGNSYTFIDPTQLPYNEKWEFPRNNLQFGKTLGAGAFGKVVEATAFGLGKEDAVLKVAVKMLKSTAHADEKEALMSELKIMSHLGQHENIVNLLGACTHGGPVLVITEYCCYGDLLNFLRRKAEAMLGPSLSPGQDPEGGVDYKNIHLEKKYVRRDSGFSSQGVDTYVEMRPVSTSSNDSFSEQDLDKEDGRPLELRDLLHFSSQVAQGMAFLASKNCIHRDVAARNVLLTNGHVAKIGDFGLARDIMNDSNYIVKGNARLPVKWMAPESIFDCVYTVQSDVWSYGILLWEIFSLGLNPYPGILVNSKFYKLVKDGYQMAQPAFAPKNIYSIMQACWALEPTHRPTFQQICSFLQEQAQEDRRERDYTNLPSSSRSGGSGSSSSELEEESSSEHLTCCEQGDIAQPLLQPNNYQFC

SMILES: CC(C)(CF)c1cc(NC(=O)Nc2ccc(-c3ccc(N)nc3)cc2)on1 [Example 97, 1-(4-(6-aminopyridin-3-yl)phenyl)-3-(3-(1-fluoro-2-methylpropan-2-yl)isoxazol-5-yl)urea]
- Kd (FLT3 kinase): 1 to 10 nM
- Kd (KIT kinase): 1 to 10 nM
- Kd (CSF-1R kinase): ≤ 10 nM
- IC50 (MV4-11 cells): 1 to 10 nM
- Kinase specificty: S(10)-386 panel [1]: A (A≦0.1)

SMILES: CC1(c2cc(NC(=O)Nc3ccc(-c4ccc(N)nc4)cc3)no2)COC1.CS(=O)(=O)O [Example 98, 5-(4-(3-(5-(3-methyloxetan-3-yl)isoxazol-3-yl)ureido)phenyl)pyridin-2-aminium methanesulfonate]
- Kd (FLT3 kinase): 1 to 10 nM
- Kd (KIT kinase): 1 to 10 nM
- Kd (CSF-1R kinase): ≤ 10 nM
- IC50 (MV4-11 cells): 10 to 100 nM
- Kinase specificty: S(10)-386 panel [1]: A (A≦0.1)

SMILES: CC1(c2cc(NC(=O)Cc3ccc(-c4ccc(N)nc4)cc3)no2)COC1.CS(=O)(=O)O [Example 99, 5-(4-(2-((5-(3-methyloxetan-3-yl)isoxazol-3-yl)amino)-2-oxoethyl)phenyl)pyridin-2-aminium methanesulfonate]
- Kd (FLT3 kinase): ≤ 1 nM
- Kd (KIT kinase): 1 to 10 nM
- Kd (CSF-1R kinase): ≤ 10 nM
- IC50 (MV4-11 cells): 1 to 10 nM
- Kinase specificty: S(10)-386 panel [1]: A (A≦0.1)

SMILES: CC1(c2cc(NC(=O)Cc3ccc(-c4ccc(N)nc4)cc3)no2)CC1.CS(=O)(=O)O [Example 100, 5-(4-(2-(5-(1-methylcyclopropyl)isoxazol-3-ylamino)-2-oxoethyl)phenyl)pyridin-2-aminium methanesulfonate]
- Kd (FLT3 kinase): ≤ 1 nM
- Kd (KIT kinase): ≤ 1 nM
- Kd (CSF-1R kinase): ≤ 10 nM
- IC50 (MV4-11 cells): 1 to 10 nM
- Kinase specificty: S(10)-386 panel [1]: A (A≦0.1)

SMILES: CC(C)(F)c1cc(NC(=O)Cc2ccc(-c3ccc(N)nc3)cc2)on1.CS(=O)(=O)O [Example 101, 5-(4-(2-(3-(2-fluoropropan-2-yl)isoxazol-5-ylamino)-2-oxoethyl)phenyl)pyridin-2-aminium methanesulfonate]
- Kd (FLT3 kinase): ≤ 1 nM
- Kd (KIT kinase): ≤ 1 nM
- Kd (CSF-1R kinase): ≤ 10 nM
- IC50 (MV4-11 cells): 1 to 10 nM
- Kinase specificty: S(10)-386 panel [1]: A (A≦0.1)

SMILES: CC(=O)O.CC1(c2cc(NC(=O)Cc3ccc(-c4ccc(N)nc4)cc3)no2)CC1(F)F (centres unmarked) [Example 102, 5-(4-(2-((5-(2,2-difluoro-1-methylcyclopropyl)isoxazol-3-yl)amino)-2-oxoethyl)phenyl)pyridin-2-aminium acetate]
- Kd (FLT3 kinase): ≤ 1 nM
- Kd (KIT kinase): 1 to 10 nM
- Kd (CSF-1R kinase): ≤ 10 nM
- IC50 (MV4-11 cells): ≤ 1 nM
- Kinase specificty: S(10)-386 panel [1]: B (0.1<B≦0.2 nM)

SMILES: CC(=O)O.Nc1ccc(-c2ccc(CC(=O)Nc3cc(C4(CF)CC4)on3)cc2)cn1 [Example 103, 5-(4-(2-((5-(1-(fluoromethyl)cyclopropyl)isoxazol-3-yl)amino)-2-oxoethyl)phenyl)pyridin-2-aminium acetate]
- Kd (FLT3 kinase): ≤ 1 nM
- Kd (KIT kinase): ≤ 1 nM
- Kd (CSF-1R kinase): ≤ 10 nM
- IC50 (MV4-11 cells): ≤ 1 nM
- Kinase specificty: S(10)-386 panel [1]: A (A≦0.1)

SMILES: CC1(c2cc(NC(=O)Nc3ccc(-c4ccc(N)nc4)cn3)no2)CC1.CS(=O)(=O)O [Example 104, 6′-(3-(5-(1-methylcyclopropyl)isoxazol-3-yl)ureido)-3,3′-bipyridin-6-aminium methanesulfonate]
- Kd (FLT3 kinase): ≤ 1 nM
- Kd (KIT kinase): ≤ 1 nM
- Kd (CSF-1R kinase): ≤ 10 nM
- IC50 (MV4-11 cells): 10 to 100 nM
- Kinase specificty: S(10)-386 panel [1]: A (A≦0.1)

SMILES: CC(C)(C)c1cc(NC(=O)Cc2ccc(-c3ccc(NCCN4CCOCC4)nc3)cc2)no1.CS(=O)(=O)O [Example 105, 5-(4-(2-(5-tert-butylisoxazol-3-ylamino)-2-oxoethyl)phenyl)-N-(2-morpholinoethyl)pyridin-2-aminium methanesulfonate]
- Kd (FLT3 kinase): ≤ 1 nM
- Kd (KIT kinase): ≤ 1 nM
- Kd (CSF-1R kinase): ≤ 10 nM
- IC50 (MV4-11 cells): 1 to 10 nM
- Kinase specificty: S(10)-386 panel [1]: B (0.1<B≦0.2 nM)

SMILES: CC1(c2cc(NC(=O)Nc3ccc(-c4ccc(N)nc4)cc3)no2)CC1.CS(=O)(=O)O [Example 106, 5-(4-(3-(5-(1-methylcyclopropyl)isoxazol-3-yl)ureido)phenyl)pyridin-2-aminium methanesulfonate]
- Kd (FLT3 kinase): ≤ 1 nM
- Kd (KIT kinase): ≤ 1 nM
- Kd (CSF-1R kinase): ≤ 10 nM
- IC50 (MV4-11 cells): 1 to 10 nM
- Kinase specificty: S(10)-386 panel [1]: A (A≦0.1)
